Molecules are shown by their SMILES.

One data set has as its target T1, tyrosinase (Mus musculus, UniProt P11344).
T1 construct: This cell pellets were lysated using lysis buffer, centrifuged at 12,000 rpm for 10 min and the supernatant was collected; endogenous in cells; host or cells: B16 F1 mouse melanoma cells (Korean Cell Line Bank)
T1 sequence (P11344 19-533): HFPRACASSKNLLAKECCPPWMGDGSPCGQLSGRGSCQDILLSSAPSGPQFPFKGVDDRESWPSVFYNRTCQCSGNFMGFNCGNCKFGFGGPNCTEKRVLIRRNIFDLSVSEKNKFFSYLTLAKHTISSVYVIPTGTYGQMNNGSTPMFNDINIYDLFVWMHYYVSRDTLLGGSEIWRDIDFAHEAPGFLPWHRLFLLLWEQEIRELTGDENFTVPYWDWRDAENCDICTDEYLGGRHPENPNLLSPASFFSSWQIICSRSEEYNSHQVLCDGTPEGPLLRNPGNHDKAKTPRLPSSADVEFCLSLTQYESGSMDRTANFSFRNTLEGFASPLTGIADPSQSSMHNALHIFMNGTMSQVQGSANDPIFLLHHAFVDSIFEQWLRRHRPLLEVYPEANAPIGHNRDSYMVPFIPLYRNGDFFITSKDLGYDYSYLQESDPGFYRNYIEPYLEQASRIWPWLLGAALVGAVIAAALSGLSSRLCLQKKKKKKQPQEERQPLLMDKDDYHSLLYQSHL
Nature of the data set: Inhibition of intracellular tyrosinase activity in melanoma cells. To be noted: B16-F1, read-out: Inhibitory rate of intracellular tyrosinase activity (%). It is filed as cell-based, Murine. On the procedure: After measuring the inhibition of melanin production by matrine and oxymatrine using B16 mouse melanoma cells (Korean Cell Line Bank), the measurement was compared with that for the inhibition of intracellular tyrosinase activities by arbutin, known as a melanin production inhibitor.
Murine melanoma (B-16 F1) cells were seeded into each well of a 6-well plate (1×10^5 cells/well) in DMEM containing 10% FBS (fetal bovine serum) and the cells were cultured to about more than 80% adherence by incubating in a CO2 incubator under conditions of 37° C. and 5.0% CO2. After cultivation, the medium was removed and samples were replaced in medium diluted at suitable concentration, followed by incubating for 3 days under conditions of 37° C. and 5.0% CO2. […] The cells removing medium were washed with PBS (phosphate buffer saline) and treated with trypsin to collect cells. Number of the collected cells was calculated using hematocytometer, centrifuged at 5,000 to 10,000 rpm for 10 min and the supernatant was eliminated, thereby obtaining pellets. This cell pellets were lysated using lysis buffer, centrifuged at 12,000 rpm for 10 min and the supernatant was collected. Then, the cell solution was measured for absorbance at 492 nm using microplate reader and the activity of tyrosinase per cell constant number was estimated.

A further data set relates to pigmentation of skin. Nature of the data set: Skin whitening of UV-induced pigmentation, chromameter L* value. Format: in vivo, brown guinea pigs. As to conditions: for Whitening effects (ΔL): topical once or twice a day for 50 days, UV-pigmented abdominal skin. On the procedure: A whitening effect of matrine and oxymatrine was measured using brown guinea pigs (Charles River Laboratories, Inc.), known to increase its pigmentation upon exposure to ultraviolet light, like in humans. To cause pigmentation in the brown guinea pig by ultraviolet (UV), aluminum foil with square windows of 3×3 cm^2 was adhered to hair-removed abdominal skin of brown guinea pig, and then UV light was irradiated thereon with a SE lamp (wavelength 290-320 nm, Toshiba) (total irradiation energy=1350 mJ/cm^2). After UV irradiation, the aluminum foil was removed and samples (matrine, oxymatrine or albutin) were applied as the following method. […] From the maximum, samples were applied. Applications performed once or twice a day for 50 days. […] The control with only the solvent was applied to another site. Occurrence of cumulative irritation also was examined. The degree of pigmentation of skin was determined using a chromameter (CR2002, MINOLTA, JP) to estimate the effects of applied samples. L*a*b* colorimetric system was used to classify color and L* value was used as standard in the present invention. The L* value was corrected using white board standard and was measured more than five times at one site, repeatedly. Pigmentation was evenly distributed. Skin color differences (ΔL*) between application initial point and application terminal point were obtained and then using these values, their effects of the applied samples were estimated. ΔL*=L* value at […] after application-L* value at application initial day. Equation 1 ΔL* values were obtained both at sample application site and control application site and compared, whereby the effects of the whitening substances can be estimated.

Data set [1] can be described thus: Anti-oxidation: removal of superoxide anion generated by xanthine oxidase (SOD Assay Kit-WST). It is filed as biochemical. On the procedure: This experiment evaluates anti-oxidation activity of sample by observing removal of superoxide anion generated by xanthine oxidase. The experiment was performed using the kit (SOD Assay Kit-WST) purchased from Dojindo (JP) in accordance with manufacture's protocol.

The test system of the next data set is COX (cyclooxygenase). Nature of the data set: COX inhibitory ability in LPS-treated THP-1 cells, [1-14C] arachidonic acid, TLC. It is filed as cell-based, human. As to conditions: LPS alone = 100. On the procedure:
To determine whether matrine and oxymatrine had anti-inflammatory effects, the experiment of COX (cyclooxygenase) inhibitory ability was carried out using human monocytic cell, THP-1 cell (Korean Cell Line Bank) according to conventional method. […] J. Van de Ouderaaa and Muytenhek. THP-1 cell line was cultivated and aliquoted into 24-well plate. The incubation volume per well was adjusted to 500 μl, 2 μl of the sample compound, which dissolved in […] (1 μg/ml, Sigma) and solvents described in the following Table 9 respectively, was added and cultivated for 24-48 hr under the same condition. After 24-48 hr, calcium ionophore (Sigma) and [1-14C] arachidonic acid 1 μl (in EtOH, 0.1 μCi/ml, Sigma) were added to each well, and cultivated for 10 min under the same condition. Following the cultivation, citric acid was added to each well for adjusting to pH 3.5, shaked, each 500 μl of cultivation solution taken from the plate was aliquoted into micro centrifuge tube, 700 μl of ethylacetate was added to thereto, and the solution was shaking extracted for 10 min. 500 μl of ethylacetate layer was concentrated using speed vacuum dryer for 20 min, 20 μl of the residual was dissolved in ethylacetate, and the resultant was employed with authentic standard in TLC plate. The radioactive band was identified by authentic eicosanoid standards, the radioactivity of the identified band was measured using BAS 2000 bio-imaging analyzer (Fuji, JP) (Table 9).

As for `O=C1CCC[C@@H]2[C@H]3CCCN4CCC[C@@H](CN12)[C@@H]34` [Matrine, matrine], the inhibition at 10 µM on tyrosinase stood at 13%. At tyrosinase, the inhibition at 100 µM stood at 32%. Moreover, the inhibition at 500 µM at tyrosinase came to 37%. The “Whitening effects (ΔL)” value is 0.38 with pigmentation of skin (0.2 %) and 0.53 in the data set with pigmentation of skin (1.0 %). Further, the “Occurrence of cumulative irritation” value in the data set on pigmentation of skin (brown guinea pig skin, application for 50 days) is “not observing the occurrence of cumulative irritation”. Also, the results for the “Removal rate of superoxide anion (%)” value in data set [1] (10 μM), in data set [1] (100 μM) and in data set [1] (500 μM) were 6%, 12% and 24%, respectively. Also, the “COX activities (%)” value in the data set with COX (cyclooxygenase) (10 uM with LPS (1 μg/ml)) is on record as 98%; in the data set on COX (cyclooxygenase) (100 uM with LPS (1 μg/ml)), 87%; in the data set on COX (cyclooxygenase) (500 uM with LPS (1 μg/ml)), 65%.

Take `O=C1CCC[C@@H]2[C@H]3CCC[N+]4([O-])CCC[C@@H](CN12)[C@@H]34` (some centres unmarked) [Oxymatrine, oxymatrine]: the inhibition at 10 µM at tyrosinase was found to be 11%. Further, the inhibition at 100 µM at tyrosinase came to 29%. For the same compound, at tyrosinase, the inhibition at 500 µM was 34%. In addition, the “Whitening effects (ΔL)” value is reported as 0.24 with pigmentation of skin (0.2 %) and 0.50 in the data set on pigmentation of skin (1.0 %). The figures for the “Removal rate of superoxide anion (%)” value in data set [1] (10 μM), in data set [1] (100 μM) and in data set [1] (500 μM) were 4%, 17% and 32%, respectively. Also, the “COX activities (%)” value was found to be 94% in the data set on COX (cyclooxygenase) (10 uM with LPS (1 μg/ml)), 81% in the data set with COX (cyclooxygenase) (100 uM with LPS (1 μg/ml)) and 71% in the data set with COX (cyclooxygenase) (500 uM with LPS (1 μg/ml)).

Source of the values: patent publication US20100099698A1, “Compositions for Improving Skin Conditions Comprising Matrine or Its Oxidized Derivatives” (Biospectrum Inc., priority 2007, published 2010).
